Measured values reported in US6921539B2, “Antimicrobial therapeutic compositions and method of use” (priority 2002, dated 2005).

How the values were obtained:
acute bronchio pneumonia [1] = assay: In Vivo Treatment of Pneumonia in Sheep, control group (Example 9); conditions: 15 i.m. injections of 2 ml every 8 hours
Text: (§1) For example, a normalization of body temperature, the animal has begun to eat if not eating before treatment, the specific symptoms (e.g., diarrhea, coughing, etc.) have ceased.
(§2) Treatments of procarvol by injection were through methods and techniques normally used by those in the agricultural field.
(§3) The following examples are from a control group. These were similar animals and received standard conventional antibiotic treatment with accepted veterinary treatment protocols.
A 60 day old male sheep with an initial weight of 40 lbs (18 kg) was afflicted with acute bronchio pneumonia. Symptoms included fever and difficult breathing. The sheep had been positively diagnosed for […]. The sheep had been treated previously with penicillin. The therapy included 15 intramuscular injections of 2 ml Procaine penicillin G every 8 hours. The temperature of the sheep over the course of treatment is shown below.

Escherichia coli [2] = assay: In Vivo Treatment of Colibacilosis in Pig, control group (Example 8); conditions: 2 i.m. injections of 2 ml every 12 hours
Text: as §1, §2, §3
A three (3) week old female Landras pig with an initial weight of 19 lbs (9 kg) was afflicted with Escherichia coli colibacilosis. Symptoms included diarrhea. The pig had been positively diagnosed for the bacterium Escherichia coli. The pig had been treated previously with ampicillin and colicisit. The therapy included two (2) intramuscular injections of 2 ml of ampicillin every 12 hours. The temperature of the pig over the course of treatment is shown below.

Steptococcus uberis = assay: In Vivo Treatment of Mastitis in Cow, control group (Example 14); conditions: 8 i.m. injections of 8 ml every 12 hours
Text: as §1, §2, §3
A four (4) year old […] Holstein cow with an initial weight of 1000 lbs (454 kg) was afflicted with mastitis. Symptoms included edema on the udder, and poor quality milk. The cow had been positively diagnosed for Steptococcus uberis. The cow had been previously treated with penicillin and streptomycin. The therapy included eight (8) intramuscular injections of 8 ml of ampicillin every 12 hours. The temperature of the cow over the course of treatment is shown below.

acute bronchio pneumonia [3] = assay: In Vivo Treatment of Pneumonia in Pig, control group (Example 13); conditions: 8 i.m. injections of 8 ml every 12 hours
Text: as §1, §2, §3
A three and one half (3½) month old male Landras pig with an initial weight of 80 lbs (36 kg) was afflicted with acute bronchio pneumonia. Symptoms included coughing, fever, and loss of appetite. The pig had been positively diagnosed for pneumonia. The pig had not been treated previously. The therapy included eight (8) intramuscular injections of 8 ml of ampicillin every 12 hours. The temperature of the pig over the course of treatment is shown below.

Escherichia Coli [4] = assay: In Vivo Treatment of Colibacilosis in Calf, control group (Example 12); conditions: 5 i.m. injections of 5 ml and infusion of electrolytes every 12 hours
Text: as §1, §2, §3
A 15 day old male Holstein calf with an initial weight of 90 lbs (41 kg) was afflicted with Escerichia coli colibacilosis. Symptoms fever, diarrhea, dehydration, and loss of appetite. The calf had been positively diagnosed for Escherichia Coli. The calf had not been treated previously. The therapy included five (5) intramuscular injections of 5 ml ampicillin and also the infusion of electrolytes every 12 hours. The temperature of the calf over the course of treatment is shown below.

[5] = cited from earlier work
[6] = inactive metabolites after degradation by enzymes; cited from earlier work

With CC1(C)S[C@@H]2[C@H](NC(=O)Cc3ccccc3)C(=O)N2[C@H]1C(=O)O.CCN(CC)CCOC(=O)c1ccc(N)cc1 [Procaine penicillin G] the outcome of treatment (acute bronchio pneumonia [1]) was “successful recovery”.
With CC1(C)S[C@@H]2[C@H](NC(=O)[C@H](N)c3ccccc3)C(=O)N2[C@H]1C(=O)O [ampicillin] the outcome of treatment (Escherichia coli [2]) was “died as a result of the infection”, the outcome of treatment (Steptococcus uberis) was “successful recovery” and the outcome of treatment (acute bronchio pneumonia [3]) was “successful recovery”. The outcome of treatment (Escherichia Coli [4]) was “died as a result of the infection”.
For Cc1ccc(C(C)C)cc1O [carvacrol, 5-isopropyl-2-methylphenol], the solubility in lipids [5] is given as “soluble in lipids”, the “metabolites excreted in the urine” value [6] is given as “approx. 90%” and the “metabolites expired from the lungs in the form of carbon dioxide (CO2)” value [6] is given as 10%.
For Cc1ccc(C(C)C)c(O)c1 [thymol, 5-methyl-2[1-methylethyl]phenol], the “metabolites excreted in the urine” value [6] is listed as “approx. 90%” and the “metabolites expired from the lungs in the form of carbon dioxide (CO2)” value [6] is listed as 10%.
